The values that follow come from PubChem BioAssay AID2124 (Sanford-Burnham Center for Chemical Genomics, 2009).

pEC50: −log10 of the molar value. Inconclusive results are not listed. Calls of active or inactive are those of the source. The rule behind the calls is not given here; tested in MIN6 cells.

Assay [1] in a line: GFP-wavelength compound autofluorescence in cells – imaging, high-content imaging, artefact control, dose response (AID 2124).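 For cell count: cells exposed to compound for 48 hours before fixing.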 Conditions: cells, GFP-channel autofluorescence, high-content imaging; cell count; at 10 µM.
Assay [2] deals with cells, GFP-channel autofluorescence, high-content imaging. The assay is described as above.

Regarding `CCCCN1C(=O)/C(=C/C=C2\N(C)c3ccccc3C2(C)C)SC1=S`, the cell count in assay [1] is 2910 cells. In addition, the negative logarithm of the EC50 (pEC50) in assay [2] was 5.58.
`CCCN1C(=O)/C(=C/c2c(N3CCNC(=O)C3CC(=O)OCC)nc3c(C)cccn3c2=O)SC1=S` (stereo unspecified): the cell count in assay [1] came out at 2790 cells. For the same compound, the negative logarithm of the EC50 (pEC50) in assay [2] was 5.25.
As for `Oc1ccc(/C=N/Nc2ccnc3cc(Cl)ccc23)c(O)c1`, in assay [1], the cell count worked out at 1690 cells. The EC50 in assay [2] was 10.3 µM (inactive).
Turning to `CCCN1C(=O)/C(=C/C=C2\N(CC)c3ccccc3C2(C)C)SC1=S`, in assay [1], the cell count came to 3030 cells. The negative logarithm of the EC50 (pEC50) in assay [2] was 5.57.
`O=C1c2cccc3c(O)ccc(c23)C(=O)N1Cc1ccccc1`: the cell count in assay [1] was 2660 cells. The EC50 in assay [2] was > 16 µM (inactive).
The corresponding values for `COc1ccc(CN=Cc2[nH]c3ccc(Br)c(Cl)c3c2O)cc1` are 3150 cells and > 16 µM (inactive).
With `N#C/C(=C/c1ccc(N2CCOCC2)o1)C(=O)Nc1ccccc1`, the cell count in assay [1] was 3080 cells. The negative-log EC50 (pEC50) in assay [2] is 5.17.
Regarding `COCCN1C(=O)/C(=C/c2ccc(N3CCCC3)cc2)SC1=S`, the cell count in assay [1] turned out to be 3330 cells. Further, the negative logarithm of the EC50 (pEC50) in assay [2] was 5.01.
As to `CCOC(=O)c1sc2cc([N+](=O)[O-])cc(SCC(C)C)c2c1N`, the cell count in assay [1] is 3070 cells. In assay [2], the negative-log EC50 (pEC50) was 5.91.
The corresponding values for `O=c1c(Cl)c2oc3ccccc3nc-2c2ccccc12` are 2670 cells and 5.19.
Regarding `COc1cc2c3nnc(-c4ccc(F)cc4)c-3cn(Cc3ccccc3)c2cc1OC`, the cell count in assay [1] came out at 338 cells. For the same compound, the pEC50 in assay [2] is 5.59.
As for `CCN1CC=C2C(C#N)=C(N)C(C#N)(C#N)C(CCc3ccccc3)C2C1` (stereo unspecified), the cell count in assay [1] was found to be 3160 cells. Moreover, in assay [2], the negative-log EC50 (pEC50) was 5.03.
`Cc1cc(N2CCCC2)ccc1/C=C1/C(=O)N(C)C(=S)N1C` came in with a cell count in assay [1] of 2940 cells. Also, in assay [2], the pEC50 is 5.15.
Consider `COc1cc([C@@H]2[C@H]3CNCC=C3C(C#N)=C(N)C2(C#N)C#N)ccc1OC(C)C`, for which, in assay [1], the cell count turned out to be 3160 cells. Further, in assay [2], the EC50 is 13.6 µM (inactive).
The corresponding values for `N#C/C(=C\c1ccc(N2CCCCC2)o1)C(N)=O` are 3260 cells and 12.2 µM (inactive).
For `Cc1cccn2c(=O)c(/C=C3\SC(=S)N(CC(C)C)C3=O)c(NCCCOC(C)C)nc12`, in that order: 2810 cells and > 16 µM (inactive).
For `CN1CC=C2C(C#N)=C(N)C(C#N)(C#N)[C@H](c3cccs3)[C@H]2C1`, in that order: 2820 cells and > 16 µM (inactive).
`Cc1oc(C)c2c(=O)ccc3c(c12)OC(N)=C(C#N)C3c1ccc(F)cc1` (stereo unspecified) displayed a cell count in assay [1] of 2880 cells. Also, the EC50 in assay [2] was > 16 µM (inactive).
For `O=C1c2cccc3c(O)ccc(c23)C(=O)N1Cc1ccco1`, in that order: 2850 cells and 14.6 µM (inactive).
Turning to `CCN1CCc2c(sc(NC(=S)NC(=O)c3ccc(Cl)cc3)c2C(N)=O)C1`, the cell count in assay [1] came to 3040 cells. Besides, in assay [2], the pEC50 was 5.18.
Regarding `CCN(CC)c1ccc2cc(/C(N)=N/NC(=O)c3cccs3)c(=O)oc2c1`, in assay [1], the cell count is 3050 cells. Also, the pEC50 in assay [2] was 5.05.
For `Cc1c2ccccc2nc2c(F)c(NC(C)C)c(F)c(F)c12`, in that order: 2550 cells and 5.04.
`CCN(CC)c1ccc(/C=C(\C#N)C(=O)c2ccc(Br)cc2)cc1` showed a cell count in assay [1] of 2740 cells. Further, the negative logarithm of the EC50 (pEC50) in assay [2] is 5.29.
Turning to `CN1CC=C2C(C#N)=C(N)C(C#N)(C#N)[C@H](c3ccoc3)[C@H]2C1`, the cell count in assay [1] was 1690 cells. In addition, the EC50 in assay [2] is > 16 µM (inactive).
In assay [1], `COc1ccc(/C=C2\C(=O)NC(=S)N2C(=O)c2ccc(F)cc2)cc1` returned a cell count of 2980 cells. Further, the EC50 in assay [2] was > 16 µM (inactive).
In assay [1], `Cc1oc(C)c2c(=O)ccc3c(c12)OC(N)=C(C#N)C3c1ccccc1Cl` (stereo unspecified) showed a cell count of 3240 cells. For the same compound, the EC50 in assay [2] was 14.8 µM (inactive).
`COc1cc([C@@H]2[C@H]3CN(C)CC=C3C(C#N)=C(N)C2(C#N)C#N)cc2c1OCO2` came in with a cell count in assay [1] of 3070 cells. For the same compound, the pEC50 in assay [2] was 5.03.
`CCN(CC)c1ccc2cc(-c3nc(-c4ccc(OC)cc4)cs3)c(=O)oc2c1` had a cell count in assay [1] of 2750 cells. For the same compound, the EC50 in assay [2] was > 16 µM (inactive).
In assay [1], `CC(C)/C=C1\CC/C(=C\c2ccc(N(C)C)cc2)C1=O` displayed a cell count of 2850 cells. Also, the pEC50 in assay [2] is 5.02.
The corresponding values for `CCCCN1C(=O)/C(=C/C=C2\SCCN2C)SC1=S` are 2930 cells and 5.18.
The corresponding values for `N#Cc1cccc(NC(=O)CSc2ccc3c4c(cccc24)C(=O)c2ccccc2-3)c1` are 3090 cells and 5.33.
The corresponding values for `CCN(CC)c1ccc2cc(C(=O)Nc3ccccn3)c(=O)oc2c1` are 3080 cells and 5.27.
In assay [1], `CCCN1C(=O)S/C(=C\c2ccc(N3CCOCC3)o2)C1=O` yielded a cell count of 194 cells. Besides, in assay [2], the EC50 was > 16 µM (inactive).

The pEC50 is −log10 of the EC50, conventionally taken in molar units. For orientation: EC50 means the concentration needed to bring the measured effect to its halfway point.
